According to PubChem BioAssay (NCI):
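All cell lines were grown in 96-well plates and treated with compound for 48 hours. At the GI50, growth is halved. TGI is the concentration that stops growth completely.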

Legend:
Test in all cases: NCI-60 cell line screen, 48 h
ACHN renal = system: ACHN renal
UACC-62 melanoma = system: UACC-62 melanoma
SNB-19 CNS = system: SNB-19 CNS
MCF7 breast = system: MCF7 breast
A549 NSCLC = system: A549 NSCLC
OVCAR-3 ovarian = system: OVCAR-3 ovarian
OVCAR-4 ovarian = system: OVCAR-4 ovarian
UO-31 renal = system: UO-31 renal
UACC-257 melanoma = system: UACC-257 melanoma
HCT-116 colon = system: HCT-116 colon
HCT-15 colon = system: HCT-15 colon
HCC-2998 colon = system: HCC-2998 colon
CCRF-CEM leukemia = system: CCRF-CEM leukemia
T-47D breast = system: T-47D breast
RPMI-8226 leukemia = system: RPMI-8226 leukemia
SW-620 colon = system: SW-620 colon
SK-MEL-28 melanoma = system: SK-MEL-28 melanoma
SNB-75 CNS = system: SNB-75 CNS
BT-549 breast = system: BT-549 breast
M14 melanoma = system: M14 melanoma
DU-145 prostate = system: DU-145 prostate
NCI-H226 lung = system: NCI-H226 lung
NCI-H23 lung = system: NCI-H23 lung
A498 renal = system: A498 renal
HL-60(TB) leukemia = system: HL-60(TB) leukemia
HS 578T breast = system: HS 578T breast
SK-MEL-5 melanoma = system: SK-MEL-5 melanoma
HOP-62 NSCLC = system: HOP-62 NSCLC
MOLT-4 leukemia = system: MOLT-4 leukemia
SF-268 CNS = system: SF-268 CNS
IGROV1 ovarian = system: IGROV1 ovarian
SF-539 CNS = system: SF-539 CNS
SK-MEL-2 melanoma = system: SK-MEL-2 melanoma
EKVX NSCLC = system: EKVX NSCLC
NCI/ADR-RES ovarian = system: NCI/ADR-RES ovarian
OVCAR-5 ovarian = system: OVCAR-5 ovarian
NCI-H460 lung = system: NCI-H460 lung
K-562 leukemia = system: K-562 leukemia
MDA-MB-231 breast = system: MDA-MB-231 breast
KM12 colon = system: KM12 colon
NCI-H522 lung = system: NCI-H522 lung
LOX IMVI melanoma = system: LOX IMVI melanoma
CAKI-1 renal = system: CAKI-1 renal
PC-3 prostate = system: PC-3 prostate
SK-OV-3 ovarian = system: SK-OV-3 ovarian
SR leukemia = system: SR leukemia
OVCAR-8 ovarian = system: OVCAR-8 ovarian
HT29 colon = system: HT29 colon
TK-10 renal = system: TK-10 renal
RXF 393 renal = system: RXF 393 renal
SN12C renal = system: SN12C renal
U251 CNS = system: U251 CNS
MDA-MB-435 = system: MDA-MB-435
COLO 205 colon = system: COLO 205 colon
786-0 renal = system: 786-0 renal
MALME-3M melanoma = system: MALME-3M melanoma
SF-295 CNS = system: SF-295 CNS
HOP-92 NSCLC = system: HOP-92 NSCLC

## COc1ccc(-c2n/c(=C\c3c(O)[nH]c4ccccc34)cc3c2=Nc2ccccc2-3)cc1
ACHN renal
  GI50: 6.81 µM
  TGI: 21.3 µM
UACC-62 melanoma
  GI50: 1.31 µM
  TGI: 2.58 µM
SNB-19 CNS
  GI50: 1.63 µM
  TGI: 3.79 µM
MCF7 breast
  GI50: 1.28 µM
  TGI: 2.75 µM
A549 NSCLC
  GI50: 1.79 µM
  TGI: 4.31 µM
OVCAR-3 ovarian
  GI50: 1.01 µM
  TGI: 2.28 µM
OVCAR-4 ovarian
  GI50: 1.47 µM
  TGI: 2.98 µM
UO-31 renal
  GI50: 0.693 µM
  TGI: 24.2 µM
UACC-257 melanoma
  GI50: 2.19 µM
  TGI: 6.97 µM
HCT-116 colon
  GI50: 1.55 µM
  TGI: 2.88 µM
HCT-15 colon
  GI50: 1.64 µM
  TGI: 4.13 µM
HCC-2998 colon
  GI50: 1.52 µM
  TGI: 3.07 µM
CCRF-CEM leukemia
  GI50: 2.24 µM
  TGI: 7.1 µM
T-47D breast
  GI50: 2.22 µM
  TGI: 9.43 µM
RPMI-8226 leukemia
  GI50: 2.35 µM
  TGI: 6.87 µM
SW-620 colon
  GI50: 1.11 µM
  TGI: 2.31 µM
SK-MEL-28 melanoma
  GI50: 1.07 µM
  TGI: 2.32 µM
SNB-75 CNS
  GI50: 2.07 µM
  TGI: 21.1 µM
BT-549 breast
  GI50: 1.45 µM
  TGI: 2.96 µM
M14 melanoma
  GI50: 1.15 µM
  TGI: 2.43 µM
DU-145 prostate
  GI50: 1.61 µM
  TGI: 3.31 µM
NCI-H226 lung
  GI50: 15.1 µM
  TGI: 36.2 µM
NCI-H23 lung
  GI50: 1.55 µM
  TGI: 3.09 µM
A498 renal
  GI50: 2.42 µM
  TGI: 13.2 µM
HL-60(TB) leukemia
  GI50: 1.9 µM
  TGI: 4.08 µM
HS 578T breast
  GI50: 1.85 µM
  TGI: 5.75 µM
SK-MEL-5 melanoma
  GI50: 1.36 µM
  TGI: 2.64 µM
HOP-62 NSCLC
  GI50: 1.63 µM
  TGI: 3.23 µM
MOLT-4 leukemia
  GI50: 2.03 µM
  TGI: 4.27 µM
SF-268 CNS
  GI50: 1.64 µM
  TGI: 3.58 µM
IGROV1 ovarian
  GI50: 15.3 µM
  TGI: 47.7 µM
SF-539 CNS
  GI50: 1.86 µM
  TGI: 3.31 µM
SK-MEL-2 melanoma
  GI50: 0.795 µM
  TGI: 2.35 µM
EKVX NSCLC
  GI50: 3.44 µM
  TGI: 52 µM
NCI/ADR-RES ovarian
  GI50: 0.667 µM
  TGI: 3.04 µM
OVCAR-5 ovarian
  GI50: 5.63 µM
  TGI: 20.4 µM
NCI-H460 lung
  GI50: 1.68 µM
  TGI: 3.28 µM
K-562 leukemia
  GI50: 1.45 µM
  TGI: 3.63 µM
MDA-MB-231 breast
  GI50: 1.13 µM
  TGI: 2.52 µM
KM12 colon
  GI50: 0.695 µM
  TGI: 2.18 µM
NCI-H522 lung
  GI50: 1.06 µM
  TGI: 2.3 µM
LOX IMVI melanoma
  GI50: 1.55 µM
  TGI: 2.88 µM
CAKI-1 renal
  GI50: 14.5 µM
  TGI: 36.7 µM
PC-3 prostate
  GI50: 1.3 µM
  TGI: 9.31 µM
SK-OV-3 ovarian
  GI50: 9.19 µM
  TGI: 35.6 µM
SR leukemia
  GI50: 0.518 µM
  TGI: 3.15 µM
OVCAR-8 ovarian
  GI50: 1.42 µM
  TGI: 3.11 µM
HT29 colon
  GI50: 1.1 µM
  TGI: 2.29 µM
TK-10 renal
  GI50: 1.65 µM
  TGI: 3.01 µM
RXF 393 renal
  GI50: 1.26 µM
  TGI: 2.67 µM
SN12C renal
  GI50: 2.03 µM
  TGI: 5.3 µM
U251 CNS
  GI50: 1.45 µM
  TGI: 2.76 µM

## Cc1cc(NCCCCCCNc2cc(C)nc3ccc(N)cc23)c2cc(N)ccc2n1
SNB-19 CNS
  TGI: > 100 µM
U251 CNS
  TGI: > 100 µM

## COc1cc2ccc3ccncc3c2cc1OC
ACHN renal
  TGI: > 10 µM
UACC-62 melanoma
  TGI: > 10 µM
MCF7 breast
  TGI: > 10 µM
A549 NSCLC
  TGI: > 10 µM
OVCAR-4 ovarian
  TGI: > 10 µM
CCRF-CEM leukemia
  TGI: > 10 µM
T-47D breast
  TGI: > 10 µM
RPMI-8226 leukemia
  TGI: > 10 µM
SW-620 colon
  TGI: > 10 µM
SK-MEL-28 melanoma
  TGI: > 10 µM
SNB-75 CNS
  TGI: > 10 µM
M14 melanoma
  TGI: > 10 µM
MDA-MB-435
  TGI: > 10 µM
COLO 205 colon
  TGI: > 10 µM
NCI-H23 lung
  TGI: > 10 µM
SK-MEL-5 melanoma
  TGI: > 10 µM
HOP-62 NSCLC
  TGI: > 10 µM
MOLT-4 leukemia
  TGI: > 10 µM
SF-268 CNS
  TGI: > 10 µM
IGROV1 ovarian
  TGI: > 10 µM
786-0 renal
  TGI: > 10 µM
SK-MEL-2 melanoma
  TGI: > 10 µM
NCI/ADR-RES ovarian
  TGI: > 10 µM
OVCAR-5 ovarian
  TGI: > 10 µM
NCI-H460 lung
  TGI: > 10 µM
K-562 leukemia
  TGI: > 10 µM
CAKI-1 renal
  TGI: > 10 µM
SK-OV-3 ovarian
  TGI: > 10 µM
SR leukemia
  TGI: > 10 µM
RXF 393 renal
  TGI: > 10 µM
U251 CNS
  TGI: > 10 µM
MALME-3M melanoma
  TGI: > 10 µM

## O=C(Nc1nc2ccccc2s1)c1cc(-c2ccc(F)cc2)n2nc(-c3ccccc3)cc2n1
UACC-62 melanoma
  GI50: 3.79 µM
  TGI: > 100 µM
SNB-19 CNS
  GI50: 5.21 µM
  TGI: > 100 µM
MCF7 breast
  GI50: 5.29 µM
  TGI: > 100 µM
HCT-116 colon
  GI50: 2.71 µM
  TGI: > 100 µM
HCC-2998 colon
  GI50: > 100 µM
  TGI: > 100 µM
CCRF-CEM leukemia
  GI50: 1.87 µM
  TGI: 4.52 µM
T-47D breast
  GI50: 3.34 µM
  TGI: > 100 µM
RPMI-8226 leukemia
  GI50: 5.59 µM
  TGI: > 100 µM
SNB-75 CNS
  GI50: 1.75 µM
  TGI: 5.82 µM
BT-549 breast
  GI50: 2.05 µM
  TGI: 6.5 µM
M14 melanoma
  GI50: 3.13 µM
  TGI: > 100 µM
DU-145 prostate
  GI50: 4.95 µM
  TGI: > 100 µM
NCI-H226 lung
  GI50: 6.31 µM
  TGI: > 100 µM
NCI-H23 lung
  GI50: 2.81 µM
  TGI: > 100 µM
A498 renal
  GI50: 1.86 µM
  TGI: 5.49 µM
HL-60(TB) leukemia
  GI50: > 100 µM
  TGI: > 100 µM
HS 578T breast
  GI50: 2.29 µM
  TGI: 8.64 µM
HOP-62 NSCLC
  GI50: 2.24 µM
  TGI: 7.02 µM
MOLT-4 leukemia
  GI50: 21 µM
  TGI: 71.7 µM
SF-268 CNS
  GI50: 3.89 µM
  TGI: > 100 µM
IGROV1 ovarian
  GI50: 4.36 µM
  TGI: > 100 µM
786-0 renal
  GI50: 2.12 µM
  TGI: 5.1 µM
SK-MEL-2 melanoma
  GI50: 3.15 µM
  TGI: 8.97 µM
EKVX NSCLC
  GI50: 6.69 µM
  TGI: > 100 µM
K-562 leukemia
  GI50: 4.25 µM
  TGI: 15.3 µM
MDA-MB-231 breast
  GI50: 2.36 µM
  TGI: 5.61 µM
SK-OV-3 ovarian
  GI50: 2.3 µM
  TGI: 5.56 µM
SR leukemia
  GI50: 3.93 µM
  TGI: 12.8 µM
TK-10 renal
  GI50: 2.45 µM
  TGI: 5.54 µM
RXF 393 renal
  GI50: 2.53 µM
  TGI: 6.43 µM
SF-295 CNS
  GI50: 4.11 µM
  TGI: > 100 µM
SN12C renal
  GI50: 6.49 µM
  TGI: > 100 µM
HOP-92 NSCLC
  GI50: 1.69 µM
  TGI: 5.06 µM
MALME-3M melanoma
  GI50: 3.74 µM
  TGI: > 100 µM
